Source: ChEMBL document CHEMBL5523715, “Inhibitory interactions of the 2,3-dihydro-6,7-dihydroxy-1H-isoindol-1-one scaffold with Bunyavirales cap-snatching endonucleases expose relevant drug design features” (Eur J Med Chem, 2024)
Active and inactive are the calls of the source. The calls are words filed in the database; no cut-off is given here.

Target: RNA-directed RNA polymerase L (Bunyavirus La Crosse) (UniProt A5HC98)
Conditions: La Crosse virus; dose 25.0 µM

RNA-directed RNA polymerase L (Bunyavirus La Crosse), sequence (A5HC98 whole entry): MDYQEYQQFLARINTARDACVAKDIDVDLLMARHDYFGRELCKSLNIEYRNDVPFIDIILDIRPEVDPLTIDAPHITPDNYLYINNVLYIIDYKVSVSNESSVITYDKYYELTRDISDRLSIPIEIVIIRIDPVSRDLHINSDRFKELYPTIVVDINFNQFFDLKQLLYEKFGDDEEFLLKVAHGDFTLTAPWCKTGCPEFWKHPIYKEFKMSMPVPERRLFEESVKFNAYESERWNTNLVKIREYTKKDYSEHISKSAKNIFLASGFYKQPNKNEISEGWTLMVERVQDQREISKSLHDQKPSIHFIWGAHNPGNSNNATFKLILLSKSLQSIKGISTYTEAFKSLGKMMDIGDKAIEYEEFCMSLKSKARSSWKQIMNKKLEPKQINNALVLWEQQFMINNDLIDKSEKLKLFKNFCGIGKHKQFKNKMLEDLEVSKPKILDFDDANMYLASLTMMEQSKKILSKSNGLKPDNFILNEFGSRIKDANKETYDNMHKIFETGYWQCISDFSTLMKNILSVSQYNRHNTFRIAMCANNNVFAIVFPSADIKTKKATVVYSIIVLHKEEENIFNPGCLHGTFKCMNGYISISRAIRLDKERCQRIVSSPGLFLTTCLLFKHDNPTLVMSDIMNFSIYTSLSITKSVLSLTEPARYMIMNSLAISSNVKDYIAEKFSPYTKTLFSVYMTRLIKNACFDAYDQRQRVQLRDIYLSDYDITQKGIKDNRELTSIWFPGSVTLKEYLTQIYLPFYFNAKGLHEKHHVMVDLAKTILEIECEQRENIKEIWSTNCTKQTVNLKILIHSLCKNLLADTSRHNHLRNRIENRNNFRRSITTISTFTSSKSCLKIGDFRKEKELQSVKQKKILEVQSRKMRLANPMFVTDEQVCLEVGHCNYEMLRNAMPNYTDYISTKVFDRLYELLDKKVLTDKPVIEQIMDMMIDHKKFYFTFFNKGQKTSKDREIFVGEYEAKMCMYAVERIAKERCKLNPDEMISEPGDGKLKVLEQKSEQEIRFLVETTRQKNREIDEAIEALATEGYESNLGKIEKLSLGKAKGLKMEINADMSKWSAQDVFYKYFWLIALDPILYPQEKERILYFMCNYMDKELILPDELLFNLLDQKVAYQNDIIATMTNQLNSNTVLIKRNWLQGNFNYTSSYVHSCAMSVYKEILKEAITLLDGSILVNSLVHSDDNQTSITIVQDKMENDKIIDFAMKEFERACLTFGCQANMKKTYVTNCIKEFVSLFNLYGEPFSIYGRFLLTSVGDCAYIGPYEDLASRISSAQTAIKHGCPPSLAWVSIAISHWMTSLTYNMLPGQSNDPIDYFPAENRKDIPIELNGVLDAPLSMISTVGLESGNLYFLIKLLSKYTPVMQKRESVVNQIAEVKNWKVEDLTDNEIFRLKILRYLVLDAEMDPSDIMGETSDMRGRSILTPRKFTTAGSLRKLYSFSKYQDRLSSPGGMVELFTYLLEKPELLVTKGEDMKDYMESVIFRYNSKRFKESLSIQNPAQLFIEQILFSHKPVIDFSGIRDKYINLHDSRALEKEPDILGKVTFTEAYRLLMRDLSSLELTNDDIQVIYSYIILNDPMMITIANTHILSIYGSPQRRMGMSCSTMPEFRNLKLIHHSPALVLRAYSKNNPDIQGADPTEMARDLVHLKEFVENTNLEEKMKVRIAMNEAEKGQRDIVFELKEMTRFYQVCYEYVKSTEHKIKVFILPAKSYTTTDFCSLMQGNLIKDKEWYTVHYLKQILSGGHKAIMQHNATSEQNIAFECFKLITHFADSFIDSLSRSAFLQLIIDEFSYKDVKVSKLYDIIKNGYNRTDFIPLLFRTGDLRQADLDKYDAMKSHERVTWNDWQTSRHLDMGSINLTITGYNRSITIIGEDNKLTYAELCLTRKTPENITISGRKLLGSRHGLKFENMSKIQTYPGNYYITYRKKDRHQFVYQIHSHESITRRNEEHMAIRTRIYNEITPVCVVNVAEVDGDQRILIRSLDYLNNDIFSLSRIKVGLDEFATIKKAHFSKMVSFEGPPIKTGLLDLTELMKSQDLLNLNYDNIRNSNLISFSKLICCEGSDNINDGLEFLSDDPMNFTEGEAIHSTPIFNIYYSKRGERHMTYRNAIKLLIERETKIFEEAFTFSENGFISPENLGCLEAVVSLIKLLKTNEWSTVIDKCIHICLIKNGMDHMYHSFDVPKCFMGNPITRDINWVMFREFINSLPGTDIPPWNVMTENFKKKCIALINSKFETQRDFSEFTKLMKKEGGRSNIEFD

Structure (SMILES) | Activity | ΔTm [°C]
O=C1c2c(ccc(O)c2O)CN1Cc1ccc(F)cc1 | Active | 
O=C1c2c(ccc(O)c2O)CN1Cc1ccc(O)cc1 | Active | 
O=C1c2c(ccc(O)c2O)CN1Cc1ccc(Cl)c(C(F)(F)F)c1 | Active | 
O=C1c2c(ccc(O)c2O)CN1Cc1ccc2ccccc2c1 | Active | 
O=C1c2c(ccc(O)c2O)CN1Cc1cc(O)c(O)c(O)c1 | Active | 
O=C1c2c(ccc(O)c2O)CN1Cc1cccc2ccccc12 | Active | 
O=C1c2c(ccc(O)c2O)CN1Cc1ccccc1 | inactive | 
O=C1c2c(ccc(O)c2O)CN1CCc1ccc(O)cc1 | Active | 
O=C1c2c(ccc(O)c2O)CN1Cc1ccc([N+](=O)[O-])cc1 | Active | 
Cc1ccc(CN2Cc3ccc(O)c(O)c3C2=O)cc1 | Active | 
O=C1c2c(ccc(O)c2O)CN1Cc1ccc(O)c(O)c1 |  | > 1
O=C1c2c(ccc(O)c2O)CN1Cc1ccc(F)c(Cl)c1 | inactive | 

Target: RNA-directed RNA polymerase L (Andes orthohantavirus) (UniProt Q9E005)
Conditions: Orthohantavirus andesense; dose 25.0 µM

Structure (SMILES) | Activity | ΔTm [°C]
O=C1c2c(ccc(O)c2O)CN1Cc1ccc(F)cc1 | Active | 
O=C1c2c(ccc(O)c2O)CN1Cc1ccc(O)cc1 | Active | 
O=C1c2c(ccc(O)c2O)CN1Cc1ccc(Cl)c(C(F)(F)F)c1 | Active | 
O=C1c2c(ccc(O)c2O)CN1Cc1ccc2ccccc2c1 | Active | 
O=C1c2c(ccc(O)c2O)CN1Cc1cc(O)c(O)c(O)c1 | Active | 
O=C1c2c(ccc(O)c2O)CN1Cc1cccc2ccccc12 | Active | 
O=C1c2c(ccc(O)c2O)CN1Cc1ccccc1 | inactive | 
O=C1c2c(ccc(O)c2O)CN1CCc1ccc(O)cc1 | Active | 
O=C1c2c(ccc(O)c2O)CN1Cc1ccc([N+](=O)[O-])cc1 | Active | 
Cc1ccc(CN2Cc3ccc(O)c(O)c3C2=O)cc1 | Active | 
O=C1c2c(ccc(O)c2O)CN1Cc1ccc(O)c(O)c1 |  | > 1
O=C1c2c(ccc(O)c2O)CN1Cc1ccc(F)c(Cl)c1 | inactive | 

Tested on: Mammarenavirus lassaense
Assay: Thermal stabilization of LASV cap-ENDO assessed as increase in melting temperature at 25 uM in presence of MnCl2 by Sypro Orange dye based assay
Conditions: not given

Structure (SMILES) | Activity | ΔTm [°C]
O=C1c2c(ccc(O)c2O)CN1Cc1ccc(F)cc1 | Active | 
O=C1c2c(ccc(O)c2O)CN1Cc1ccc(O)cc1 | Active | 
O=C1c2c(ccc(O)c2O)CN1Cc1ccc(Cl)c(C(F)(F)F)c1 | Active | 
O=C1c2c(ccc(O)c2O)CN1Cc1ccc2ccccc2c1 | Active | 
O=C1c2c(ccc(O)c2O)CN1Cc1cc(O)c(O)c(O)c1 | Active | 
O=C1c2c(ccc(O)c2O)CN1Cc1cccc2ccccc12 | Active | 
O=C1c2c(ccc(O)c2O)CN1Cc1ccccc1 | inactive | 
O=C1c2c(ccc(O)c2O)CN1CCc1ccc(O)cc1 | Active | 
O=C1c2c(ccc(O)c2O)CN1Cc1ccc([N+](=O)[O-])cc1 | Active | 
Cc1ccc(CN2Cc3ccc(O)c(O)c3C2=O)cc1 | Active | 
O=C1c2c(ccc(O)c2O)CN1Cc1ccc(O)c(O)c1 |  | < 1
O=C1c2c(ccc(O)c2O)CN1Cc1ccc(F)c(Cl)c1 | inactive | 

Tested on: not listed separately
Assay: Metal chelating activity assessed as compound-Mg(II) complex formation by measuring apparent formation constant (K) by UV-Vis spectrophotometric analysis
Assay type: functional
Conditions: not given

Structure (SMILES) | log(activity)
O=C1c2c(ccc(O)c2O)CN1Cc1ccc(O)cc1 | 2.31

Tested on: not listed separately
Assay: Metal chelating activity assessed as compound-Mn(II) complex formation by measuring apparent formation constant (K) by UV-Vis spectrophotometric analysis
Assay type: functional
Conditions: not given

Structure (SMILES) | log(activity)
O=C1c2c(ccc(O)c2O)CN1Cc1ccc(O)cc1 | 3.37

Tested on: Pichinde virus
Assay: Thermal stabilization of PICV cap-ENDO assessed as increase in melting temperature at 25 uM in presence of MnCl2 by Sypro Orange dye based assay
Conditions: not given

Structure (SMILES) | Activity | ΔTm [°C]
O=C1c2c(ccc(O)c2O)CN1Cc1ccc(F)cc1 | Active | 
O=C1c2c(ccc(O)c2O)CN1Cc1ccc(O)cc1 | Active | 
O=C1c2c(ccc(O)c2O)CN1Cc1ccc(Cl)c(C(F)(F)F)c1 | Active | 
O=C1c2c(ccc(O)c2O)CN1Cc1ccc2ccccc2c1 | Active | 
O=C1c2c(ccc(O)c2O)CN1Cc1cc(O)c(O)c(O)c1 | Active | 
O=C1c2c(ccc(O)c2O)CN1Cc1cccc2ccccc12 | Active | 
O=C1c2c(ccc(O)c2O)CN1Cc1ccccc1 | inactive | 
O=C1c2c(ccc(O)c2O)CN1CCc1ccc(O)cc1 | Active | 
O=C1c2c(ccc(O)c2O)CN1Cc1ccc([N+](=O)[O-])cc1 | Active | 
Cc1ccc(CN2Cc3ccc(O)c(O)c3C2=O)cc1 | Active | 
O=C1c2c(ccc(O)c2O)CN1Cc1ccc(O)c(O)c1 |  | < 1
O=C1c2c(ccc(O)c2O)CN1Cc1ccc(F)c(Cl)c1 | inactive | 

Target: T1, RNA-directed RNA polymerase L (Toscana virus, UniProt P37800)
Conditions: not given

Structure (SMILES) | IC50 [µM]
O=C1c2c(ccc(O)c2O)CN1Cc1ccc(F)cc1 | 5.7
O=C1c2c(ccc(O)c2O)CN1Cc1ccc(O)cc1 | 3.6
O=C1c2c(ccc(O)c2O)CN1Cc1ccc(Cl)c(C(F)(F)F)c1 | 7.3
O=C1c2c(ccc(O)c2O)CN1Cc1ccc2ccccc2c1 | 5.8
O=C1c2c(ccc(O)c2O)CN1Cc1cc(O)c(O)c(O)c1 | 0.9
O=C1c2c(ccc(O)c2O)CN1Cc1cccc2ccccc12 | 7.8
O=C1c2c(ccc(O)c2O)CN1Cc1ccccc1 | 3.3
O=C1c2c(ccc(O)c2O)CN1CCc1ccc(O)cc1 | 2.8
O=C1c2c(ccc(O)c2O)CN1Cc1ccc([N+](=O)[O-])cc1 | 4.7
Cc1ccc(CN2Cc3ccc(O)c(O)c3C2=O)cc1 | 1.5
O=C1c2c(ccc(O)c2O)CN1Cc1ccc(O)c(O)c1 | 2.4
O=C1c2c(ccc(O)c2O)CN1Cc1ccc(F)c(Cl)c1 | 13.4

Target: RNA-directed RNA polymerase L (Bunyavirus La Crosse, UniProt A5HC98)
Sequence (A5HC98 whole entry): as above
Parameters: species or system La Crosse virus
Conditions: not given

Structure (SMILES) | IC50 [µM]
O=C1c2c(ccc(O)c2O)CN1Cc1ccc(F)cc1 | 4
O=C1c2c(ccc(O)c2O)CN1Cc1ccc(O)cc1 | 0.7
O=C1c2c(ccc(O)c2O)CN1Cc1ccc(Cl)c(C(F)(F)F)c1 | 29.2
O=C1c2c(ccc(O)c2O)CN1Cc1ccc2ccccc2c1 | 3.9
O=C1c2c(ccc(O)c2O)CN1Cc1cc(O)c(O)c(O)c1 | 1.1
O=C1c2c(ccc(O)c2O)CN1Cc1cccc2ccccc12 | 11.2
O=C1c2c(ccc(O)c2O)CN1Cc1ccccc1 | 9
O=C1c2c(ccc(O)c2O)CN1CCc1ccc(O)cc1 | 6.1
O=C1c2c(ccc(O)c2O)CN1Cc1ccc([N+](=O)[O-])cc1 | 8
Cc1ccc(CN2Cc3ccc(O)c(O)c3C2=O)cc1 | 3.4
O=C1c2c(ccc(O)c2O)CN1Cc1ccc(O)c(O)c1 | 4
O=C1c2c(ccc(O)c2O)CN1Cc1ccc(F)c(Cl)c1 | 4.8

Target: RNA-directed RNA polymerase L (Toscana virus) (UniProt P37800)
Conditions: dose 25.0 µM

Structure (SMILES) | Activity | ΔTm [°C]
O=C1c2c(ccc(O)c2O)CN1Cc1ccc(F)cc1 | Active | 
O=C1c2c(ccc(O)c2O)CN1Cc1ccc(O)cc1 | Active | 
O=C1c2c(ccc(O)c2O)CN1Cc1ccc(Cl)c(C(F)(F)F)c1 | Active | 
O=C1c2c(ccc(O)c2O)CN1Cc1ccc2ccccc2c1 | Active | 
O=C1c2c(ccc(O)c2O)CN1Cc1cc(O)c(O)c(O)c1 | Active | 
O=C1c2c(ccc(O)c2O)CN1Cc1cccc2ccccc12 | Active | 
O=C1c2c(ccc(O)c2O)CN1Cc1ccccc1 | inactive | 
O=C1c2c(ccc(O)c2O)CN1CCc1ccc(O)cc1 | Active | 
O=C1c2c(ccc(O)c2O)CN1Cc1ccc([N+](=O)[O-])cc1 | Active | 
Cc1ccc(CN2Cc3ccc(O)c(O)c3C2=O)cc1 | Active | 
O=C1c2c(ccc(O)c2O)CN1Cc1ccc(O)c(O)c1 |  | > 1
O=C1c2c(ccc(O)c2O)CN1Cc1ccc(F)c(Cl)c1 | inactive | 

Tested on: Mammarenavirus choriomeningitidis
Assay: Thermal stabilization of LCMV cap-ENDO assessed as increase in melting temperature at 25 uM in presence of MnCl2 by Sypro Orange dye based assay
Conditions: not given

Structure (SMILES) | Activity | ΔTm [°C]
O=C1c2c(ccc(O)c2O)CN1Cc1ccc(F)cc1 | Active | 
O=C1c2c(ccc(O)c2O)CN1Cc1ccc(O)cc1 | Active | 
O=C1c2c(ccc(O)c2O)CN1Cc1ccc(Cl)c(C(F)(F)F)c1 | Active | 
O=C1c2c(ccc(O)c2O)CN1Cc1ccc2ccccc2c1 | Active | 
O=C1c2c(ccc(O)c2O)CN1Cc1cc(O)c(O)c(O)c1 | Active | 
O=C1c2c(ccc(O)c2O)CN1Cc1cccc2ccccc12 | Active | 
O=C1c2c(ccc(O)c2O)CN1Cc1ccccc1 | inactive | 
O=C1c2c(ccc(O)c2O)CN1CCc1ccc(O)cc1 | Active | 
O=C1c2c(ccc(O)c2O)CN1Cc1ccc([N+](=O)[O-])cc1 | Active | 
Cc1ccc(CN2Cc3ccc(O)c(O)c3C2=O)cc1 | Active | 
O=C1c2c(ccc(O)c2O)CN1Cc1ccc(O)c(O)c1 |  | < 1
O=C1c2c(ccc(O)c2O)CN1Cc1ccc(F)c(Cl)c1 | inactive | 

Target: RNA-directed RNA polymerase L (Andes orthohantavirus, UniProt Q9E005)
Parameters: species or system Orthohantavirus andesense
Conditions: not given

Structure (SMILES) | IC50 [µM]
O=C1c2c(ccc(O)c2O)CN1Cc1ccc(F)cc1 | 1.7
O=C1c2c(ccc(O)c2O)CN1Cc1ccc(O)cc1 | 1.6
O=C1c2c(ccc(O)c2O)CN1Cc1ccc(Cl)c(C(F)(F)F)c1 | 1.3
O=C1c2c(ccc(O)c2O)CN1Cc1ccc2ccccc2c1 | 1.9
O=C1c2c(ccc(O)c2O)CN1Cc1cc(O)c(O)c(O)c1 | 1.5
O=C1c2c(ccc(O)c2O)CN1Cc1cccc2ccccc12 | 3.8
O=C1c2c(ccc(O)c2O)CN1Cc1ccccc1 | 1.1
O=C1c2c(ccc(O)c2O)CN1CCc1ccc(O)cc1 | 1
O=C1c2c(ccc(O)c2O)CN1Cc1ccc([N+](=O)[O-])cc1 | 3.7
Cc1ccc(CN2Cc3ccc(O)c(O)c3C2=O)cc1 | 6.4
O=C1c2c(ccc(O)c2O)CN1Cc1ccc(O)c(O)c1 | 0.5
O=C1c2c(ccc(O)c2O)CN1Cc1ccc(F)c(Cl)c1 | 7.6

Target: RNA-directed RNA polymerase L (Toscana virus) (UniProt P37800)
Conditions: not given

Structure (SMILES) | -TdeltaS [kcal/mol]
O=C1c2c(ccc(O)c2O)CN1Cc1ccc(O)c(O)c1 | 1.76

Target: T1, RNA-directed RNA polymerase L
Conditions: not given
Remark: another data set of the same source

Structure (SMILES) | Kd [µM]
O=C1c2c(ccc(O)c2O)CN1Cc1ccc(O)c(O)c1 | 28

Target: RNA-directed RNA polymerase L (Toscana virus) (UniProt P37800)
Conditions: not given
Remark: another data set of the same source

Structure (SMILES) | deltaG [kcal/mol]
O=C1c2c(ccc(O)c2O)CN1Cc1ccc(O)c(O)c1 | -6.22

Target: RNA-directed RNA polymerase L (Toscana virus) (UniProt P37800)
Conditions: not given
Remark: another data set of the same source

Structure (SMILES) | deltaH [kcal/mol]
O=C1c2c(ccc(O)c2O)CN1Cc1ccc(O)c(O)c1 | -7.97
